Source: article PMC9963398, “Discovery of New Quinolone-Based Diarylamides as Potent B-RAF^V600E/C-RAF Kinase Inhibitors Endowed with Promising In Vitro Anticancer Activity” (International Journal of Molecular Sciences, 2023)

Key:
C-RAF = C-RAF (Homo sapiens, UniProt P04049); experiment: HotSpot kinase assay (RBC), C-RAF; settings: IC50 C-RAF
Description: Reaction Biology Corporation (RBC) Kinase HotSpotSM service was utilized for cell-free biochemical kinase evaluation of the target compounds according to the reported assay protocol [46].

DU-145 = experiment: NCI-60 five-dose SRB assay; format: cell-based; settings: Homo sapiens; DU-145, Prostate cancer, five-dose test
Method: (§1) The anticancer screening of target compounds over a full panel of 60 human cancer cell lines was carried out using Sulforhodamine B (SRB) assay at the National Cancer Institute (NCI), Bethesda, Maryland, USA, employing the standard protocol.

RXF 393 = experiment: NCI-60 five-dose SRB assay; format: cell-based; settings: Homo sapiens; RXF 393, Renal cancer, five-dose test
Method: as §1

MCF7 = experiment: NCI-60 five-dose SRB assay; format: cell-based; settings: Homo sapiens; MCF7, Breast cancer, five-dose test
Method: as §1

NCI-H460 = experiment: NCI-60 five-dose SRB assay; format: cell-based; settings: Homo sapiens; NCI-H460, NSCL cancer, five-dose test
Method: as §1

OVCAR-5 = experiment: NCI-60 five-dose SRB assay; format: cell-based; settings: Homo sapiens; OVCAR-5, Ovarian cancer, five-dose test
Method: as §1

MOLT-4 = experiment: NCI-60 five-dose SRB assay; format: cell-based; settings: Homo sapiens; MOLT-4, Leukemia, five-dose test
Method: as §1

HS 578T = experiment: NCI-60 five-dose SRB assay; format: cell-based; settings: Homo sapiens, Breast cancer, five-dose test
Method: as §1

SF-539 = experiment: NCI-60 five-dose SRB assay; format: cell-based; settings: Homo sapiens; SF-539, CNS cancer, five-dose test
Method: as §1

SK-MEL-28 = experiment: NCI-60 five-dose SRB assay; format: cell-based; settings: Homo sapiens; SK-MEL-28, Melanoma, five-dose test
Method: as §1

UO-31 = experiment: NCI-60 five-dose SRB assay; format: cell-based; settings: Homo sapiens; UO-31, Renal cancer, five-dose test
Method: as §1

OVCAR-8 = experiment: NCI-60 five-dose SRB assay; format: cell-based; settings: Homo sapiens; OVCAR-8, Ovarian cancer, five-dose test
Method: as §1

HOP-92 = experiment: NCI-60 five-dose SRB assay; format: cell-based; settings: Homo sapiens; HOP-92, NSCL cancer, five-dose test
Method: as §1

CAKI-1 = experiment: NCI-60 five-dose SRB assay; format: cell-based; settings: Homo sapiens; CAKI-1, Renal cancer, five-dose test
Method: as §1

SK-MEL-5 = experiment: NCI-60 five-dose SRB assay; format: cell-based; settings: Homo sapiens; SK-MEL-5, Melanoma, five-dose test
Method: as §1

EKVX = experiment: NCI-60 five-dose SRB assay; format: cell-based; settings: Homo sapiens, NSCL cancer, five-dose test
Method: as §1

HCC-2998 = experiment: NCI-60 five-dose SRB assay; format: cell-based; settings: Homo sapiens; HCC-2998, Colon cancer, five-dose test
Method: as §1

HT29 = experiment: NCI-60 five-dose SRB assay; format: cell-based; settings: Homo sapiens, HT-29; HT29, Colon cancer, five-dose test
Method: as §1

NCI-H322M = experiment: NCI-60 five-dose SRB assay; format: cell-based; settings: Homo sapiens, NSCL cancer, five-dose test
Method: as §1

HCT-15 = experiment: NCI-60 five-dose SRB assay; format: cell-based; settings: Homo sapiens; HCT-15, Colon cancer, five-dose test
Method: as §1

OVCAR-3 = experiment: NCI-60 five-dose SRB assay; format: cell-based; settings: Homo sapiens; OVCAR-3, Ovarian cancer, five-dose test
Method: as §1

MALME-3M = experiment: NCI-60 five-dose SRB assay; format: cell-based; settings: Homo sapiens, Melanoma, five-dose test
Method: as §1

HCT-116 = experiment: NCI-60 five-dose SRB assay; format: cell-based; settings: Homo sapiens; HCT-116, Colon cancer, five-dose test
Method: as §1

NCI-H522 = experiment: NCI-60 five-dose SRB assay; format: cell-based; settings: Homo sapiens; NCI-H522, NSCL cancer, five-dose test
Method: as §1

IGROV1 = experiment: NCI-60 five-dose SRB assay; format: cell-based; settings: Homo sapiens, IGROV-1; IGROV1, Ovarian cancer, five-dose test
Method: as §1

SK-MEL-2 = experiment: NCI-60 five-dose SRB assay; format: cell-based; settings: Homo sapiens; SK-MEL-2, Melanoma, five-dose test
Method: as §1

NCI-H23 = experiment: NCI-60 five-dose SRB assay; format: cell-based; settings: Homo sapiens; NCI-H23, NSCL cancer, five-dose test
Method: as §1

SNB-75 = experiment: NCI-60 five-dose SRB assay; format: cell-based; settings: Homo sapiens; SNB-75, CNS cancer, five-dose test
Method: as §1

SF-295 = experiment: NCI-60 five-dose SRB assay; format: cell-based; settings: Homo sapiens; SF-295, CNS cancer, five-dose test
Method: as §1

CCRF-CEM = experiment: NCI-60 five-dose SRB assay; format: cell-based; settings: Homo sapiens, Leukemia, five-dose test
Method: as §1

SNB-19 = experiment: NCI-60 five-dose SRB assay; format: cell-based; settings: Homo sapiens; SNB-19, CNS cancer, five-dose test
Method: as §1

A498 = experiment: NCI-60 five-dose SRB assay; format: cell-based; settings: Homo sapiens; A498, Renal cancer, five-dose test
Method: as §1

786-0 = experiment: NCI-60 five-dose SRB assay; format: cell-based; settings: Homo sapiens; 786-0, Renal cancer, five-dose test
Method: as §1

BT-549 = experiment: NCI-60 five-dose SRB assay; format: cell-based; settings: Homo sapiens; BT-549, Breast cancer, five-dose test
Method: as §1

MDA-MB-435 = experiment: NCI-60 five-dose SRB assay; format: cell-based; settings: Homo sapiens; MDA-MB-435, Melanoma, five-dose test
Method: as §1

COLO 205 = experiment: NCI-60 five-dose SRB assay; format: cell-based; settings: Homo sapiens; COLO 205, Colon cancer, five-dose test
Method: as §1

LOX IMVI = experiment: NCI-60 five-dose SRB assay; format: cell-based; settings: Homo sapiens, Melanoma, five-dose test
Method: as §1

MDA-MB-231/ATCC = experiment: cells; settings: Homo sapiens
Method: as §1

MDA-MB-468 = experiment: cells; settings: Homo sapiens
Method: as §1

PC-3 = experiment: cells; settings: Homo sapiens
Method: as §1

B-RAF^V600E = target: T1, B-RAF^V600E (Homo sapiens, UniProt P15056, V600E); experiment: HotSpot kinase assay (RBC), B-RAF^V600E; format: biochemical
T1 construct: purchased Reaction Biology Corporation (RBC), Kinase HotSpot service
T1 sequence (P15056 whole entry V600E): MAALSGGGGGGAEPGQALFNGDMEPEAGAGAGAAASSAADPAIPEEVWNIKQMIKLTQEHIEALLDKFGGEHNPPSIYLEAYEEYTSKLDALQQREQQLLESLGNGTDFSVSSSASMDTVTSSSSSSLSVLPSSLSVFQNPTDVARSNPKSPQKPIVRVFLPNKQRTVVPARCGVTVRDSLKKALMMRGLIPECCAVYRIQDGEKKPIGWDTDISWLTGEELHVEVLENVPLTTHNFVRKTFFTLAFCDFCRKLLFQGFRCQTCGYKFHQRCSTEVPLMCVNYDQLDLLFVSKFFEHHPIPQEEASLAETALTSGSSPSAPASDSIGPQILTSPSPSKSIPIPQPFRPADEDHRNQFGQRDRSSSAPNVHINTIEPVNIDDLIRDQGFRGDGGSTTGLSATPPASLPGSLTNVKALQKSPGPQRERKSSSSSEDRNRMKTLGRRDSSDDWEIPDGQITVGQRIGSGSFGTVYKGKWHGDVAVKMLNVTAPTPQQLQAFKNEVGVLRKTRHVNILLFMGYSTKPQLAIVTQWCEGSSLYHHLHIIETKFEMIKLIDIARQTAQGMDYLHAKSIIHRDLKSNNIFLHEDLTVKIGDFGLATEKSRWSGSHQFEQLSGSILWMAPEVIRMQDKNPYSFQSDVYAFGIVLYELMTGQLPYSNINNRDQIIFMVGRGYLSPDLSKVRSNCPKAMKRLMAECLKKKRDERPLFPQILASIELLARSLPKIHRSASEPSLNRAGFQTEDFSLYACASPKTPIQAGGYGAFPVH

[1] = 10 µM ATP, 10-dose singlicate IC50 mode

Chain of C-RAF (P04049 whole entry): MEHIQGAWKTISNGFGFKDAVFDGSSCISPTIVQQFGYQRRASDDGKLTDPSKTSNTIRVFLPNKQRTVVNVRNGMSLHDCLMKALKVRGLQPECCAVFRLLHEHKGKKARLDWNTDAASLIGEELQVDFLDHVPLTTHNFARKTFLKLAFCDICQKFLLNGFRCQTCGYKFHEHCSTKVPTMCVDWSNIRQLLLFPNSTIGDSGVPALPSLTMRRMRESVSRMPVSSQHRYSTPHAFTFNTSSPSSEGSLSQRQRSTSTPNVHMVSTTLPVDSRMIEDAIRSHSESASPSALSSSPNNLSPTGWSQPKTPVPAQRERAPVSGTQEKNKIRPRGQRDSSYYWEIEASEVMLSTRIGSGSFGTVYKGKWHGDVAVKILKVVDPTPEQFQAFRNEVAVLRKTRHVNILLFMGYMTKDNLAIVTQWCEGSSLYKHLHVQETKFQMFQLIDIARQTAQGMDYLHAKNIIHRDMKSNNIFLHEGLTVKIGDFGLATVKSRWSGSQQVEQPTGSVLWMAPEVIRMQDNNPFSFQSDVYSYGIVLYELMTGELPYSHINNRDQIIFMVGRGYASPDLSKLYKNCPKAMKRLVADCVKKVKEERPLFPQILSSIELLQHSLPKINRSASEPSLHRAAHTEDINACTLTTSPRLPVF

SMILES: CN1CCN(Cc2ccc(C(=O)Nc3cccc(Nc4ccc5cc(O)ccc5n4)c3)cc2C(F)(F)F)CC1 [Compound 18a, N-(3-((6-hydroxyquinolin-2-yl)amino)phenyl)-4-((4-methylpiperazin-1-yl)methyl)-3-(trifluoromethyl)benzamide]
- IC50 (C-RAF; 1 µM ATP): 0.0293 ± 0.009 µM
- IC50 (C-RAF; [1]): 0.0676 ± 0.0051 µM
- GI50 (DU-145): 10.5 µM
- GI50 (RXF 393): 3.55 µM
- GI50 (MCF7): 2.46 µM
- GI50 (NCI-H460): 3.84 µM
- GI50 (OVCAR-5): 14.2 µM
- GI50 (MOLT-4): 3.52 µM
- GI50 (HS 578T): 4.17 µM
- GI50 (SF-539): 1.98 µM
- GI50 (SK-MEL-28): 1.79 µM
- GI50 (UO-31): 13.4 µM
- GI50 (OVCAR-8): 13.2 µM
- GI50 (HOP-92): 3.39 µM
- GI50 (CAKI-1): 11.9 µM
- GI50 (SK-MEL-5): 2.35 µM
- GI50 (EKVX): 14.2 µM
- GI50 (HCC-2998): 2.39 µM
- GI50 (HT29): 3.37 µM
- GI50 (NCI-H322M): 11 µM
- GI50 (HCT-15): 2.09 µM
- GI50 (OVCAR-3): 11.2 µM
- GI50 (MALME-3M): 1.59 µM
- GI50 (HCT-116): 3.93 µM
- GI50 (NCI-H522): 4.82 µM
- GI50 (IGROV1): 16.6 µM
- GI50 (SK-MEL-2): 13.5 µM
- GI50 (NCI-H23): 13.9 µM
- GI50 (SNB-75): 0.656 µM
- GI50 (SF-295): 2.33 µM
- GI50 (CCRF-CEM): 3.48 µM
- GI50 (SNB-19): 13.8 µM
- GI50 (A498): 22.5 µM
- GI50 (786-0): 3.13 µM
- GI50 (BT-549): 12.2 µM
- GI50 (MDA-MB-435): 8.53 µM
- GI50 (COLO 205): 10.2 µM
- GI50 (LOX IMVI): 1.73 µM
- GI50 (MDA-MB-231/ATCC): 2.54 µM
- GI50 (MDA-MB-468): 2.23 µM
- GI50 (PC-3): 4.68 µM
- IC50 (B-RAF^V600E; 1 µM ATP): 0.0843 ± 0.009 µM
- IC50 (B-RAF^V600E; [1]): 0.114 ± 0.00495 µM
